Consider two compounds from US20250051479A1, “CYTOTOXICITY TARGETING CHIMERAS FOR CXCR3-EXPRESSING CELLS” (GLAXOSMITHKLINE INTELLECTUAL PROPERTY DEVELOPMENT LIMITED, priority 2022, published 2025).

Each structure is given as a SMILES string.

The subject of the experiment is CHOK1 cells engineered to overexpress CXCR3. Nature of the experiment: Antibody dependent cellular cytotoxicity (ADCC) reporter assay. Format: cell-based. As to conditions: with anti-cotinine antibody (human IgG1 Fc, S239D/I332E), Jurkat FcγRIIIa NFAT-luciferase reporter cells, incubated about 12-18 hours, average of two experimental runs, EC50 in molar (M). As for the experimental part: An antibody dependent cellular cytotoxicity (ADCC) reporter assay was conducted using the following four assay components: (i) ARM compound of Formula (I) targeting CXCR3 (concentrations ranging from 1 pM to 10 μM); (ii) anti-cotinine antibody having a heavy chain sequence of SEQ ID NO: 11 and a light chain sequence of SEQ ID NO: 12 (rabbit variable region with human IgG1 Fc domain containing DE mutation (S239D/I332E)) (concentrations ranging from 0.01 μg/mL-200 μg/mL); (iii) Target cells: CHOK1 cells engineered to overexpress CXCR3 (typically 1000-20,000 cells per well); and (iv) Reporter cells—Jurkat cells engineered to express FcγRIIIa with a reporter gene luciferase under the control of the NFAT promoter (typically 3000-75,000 cells per well). Reagents were combined in final volume of 20 μL in 384-well tissue culture treated plate. […]
Luminescence signal was measured on a microplate reader capable of measuring luminescence and signal:background was calculated by dividing the signal of a test well by the signal obtained when no compound of formula (I) was included in the assay. […]
ARMs compounds of Formula (I) were tested for ADCC activity in the above assay in two experimental runs and the results are shown in Table 3 below. […] The pEC50 value is the negative log of the EC50 value, wherein the EC50 value is half maximal effective concentration measured in molar (M). […]
(A reporter such as luciferase makes a cellular process visible.)

On to `CCOc1ccc(-n2c([C@@H](C)N(CC3CCN(C(=O)[C@H]4CC[C@H](NC(=O)CCCO[C@H]5CC[C@H](OCCNC(=O)[C@H]6CC(=O)N(C)[C@@H]6c6cccnc6)CC5)CC4)CC3)C(=O)Cc3ccc(F)c(C(F)(F)F)c3)nc3ncccc3c2=O)cc1` (racemic) [Example 2, (2S,3S)-N-(2-(((1R,4S)-4-(4-(((1S,4S)-4-(4-((N-((R)-1-(3-(4-ethoxyphenyl)-4-oxo-3,4-dihydropyrido[2,3-d]pyrimidin-2-yl)ethyl)-2-(4-fluoro-3-(trifluoromethyl)phenyl)acetamido)methyl)piperidine-1-carbonyl)cyclohexyl)amino)-4-oxobutoxy)cyclohexyl)oxy)ethyl)-1-methyl-5-oxo-2-(pyridin-3-yl)pyrrolidine-3-carboxamide], for which the EC50 (Cricetulus griseus, read-out: ADCC Reporter Assay pEC50 (converted)) is 3.98e-09 M. Take `CCOc1ccc(-n2c([C@@H](C)N(CC3CCN(C(=O)C4CCC(NC(=O)CCCOC5CCC(OCCNC(=O)[C@H]6CC(=O)N(C)[C@@H]6c6cccnc6)CC5)CC4)CC3)C(=O)Cc3ccc(F)c(C(F)(F)F)c3)nc3ncccc3c2=O)cc1` (stereo partly drawn) [Example 1, (2S,3S)—N-(2-(((1R,4S)-4-(4-(((1R,4R)-4-(4-((N-((R)-1-(3-(4-ethoxyphenyl)-4-oxo-3,4-dihydropyrido[2,3-d]pyrimidin-2-yl)ethyl)-2-(4-fluoro-3-(trifluoromethyl)phenyl)acetamido)methyl)piperidine-1-carbonyl)cyclohexyl)amino)-4-oxobutoxy)cyclohexyl)oxy)ethyl)-1-methyl-5-oxo-2-(pyridin-3-yl)pyrrolidine-3-carboxamide]: the “ADCC Reporter Assay pEC50” value was 7.7.
